Results as given in patent US9649303B2, “Methods and treatment for allergies and inflammation associated with gastrointestinal diseases” (MASTCELL PHARMACEUTICALS, INC., priority 2008, dated 2017).

Assays:
[1] = system: patients with a history of hazelnut allergy; assay: Oral food challenge with hazelnut flour under ketotifen or placebo (Example 1); format: in vivo, human
Method: Twenty-four patients with adverse food reaction are included in this study. As controls, twelve patients matched for age and gender and a history of GERD (Group A) and another twelve patients matched for age and gender and no history of any gastrointestinal disorder (Group B) are included. The history of use of antacids and satisfaction are recorded for both groups.
To analyze hypersensitivity to hazelnut, a double-blind, randomized, dose-ranging study is carried out with patients with a history of hazelnut allergy manifested by urticaria, angioedema, respiratory tract symptoms or hypotension generally using the methods described in Israel et al., Am. J. Respir. Crit. Care Med., (2000) 164:75-80. Eligible patients include those with serum total IgE level of 30-1000 IU/mL and/or a positive skin-prick test to hazelnut. […]
Before enrollment, threshold level for reactivity to hazelnut allergen is confirmed by a screening double-blind, placebo-controlled oral food challenge. […] Vital signs are checked, chest auscultation is performed, and peak expiratory flow rates are monitored every 30 minutes during the food challenge and for at least 2 hours after the last dose or the abatement of any symptoms or signs. […]
Peak expiratory flow rates are monitored every 30 minutes during food challenge for at least 2 hours after the last does or abatement of any symptoms or signs. […]

[2] = system: patients undergoing desensitization to airborne allergen (ragweed); assay: One-day rush immunotherapy with short ragweed extract after ketotifen or placebo pretreatment (Example 2); format: in vivo, human; conditions: ketotifen 1 mg b.i.d. plus ragweed immunotherapy vs immunotherapy alone
Method: To evaluate the effectiveness of mast cell stabilizer, e.g., ketotifen, in desensitization or immunotherapy, particularly RUSH immunotherapy, a randomized, double-blind, placebo-controlled study is performed. Patients are randomly assigned to 4 treatment groups (1:1:1:1). Pretreatment with either ketotifen, 1 mg, b.i.d., or placebo, is carried out for nine weeks to protect, prevent, inhibit or ameliorate allergic reaction, particularly to prevent, normalize or ameliorate gastrointestinal symptoms. One-day rush immunotherapy (week 0) is completed at least 3 weeks before the start of the ragweed season. On the day of rush immunotherapy, the patients receive 6 injections of either placebo or aqueous short ragweed extract. Ragweed dosing starts with a diluted extract containing 0.012 μg of Amb a 1 (a major allergen in ragweed) over a 3-hour period, reaching a maximum of 1.2 μg of Amb a 1. […]
The efficacy end point is determined by comparing the average daily allergy severity scores (measured on a scale of 0-3) between patients receiving ketotifen plus immunotherapy versus those who receive just immunotherapy alone. The score is calculated from the average of individual scores for symptoms of gastrointestinal disorders, e.g., abdominal pain, nausea, diarrhea, and/or heartburn.

[3] = system: patients undergoing desensitization to oral allergen (hazelnut); assay: Desensitization to oral allergen with hazelnut extract plus ketotifen (Example 3); format: in vivo, human; conditions: ketotifen plus hazelnut extract immunotherapy vs immunotherapy alone
From the text: To evaluate the efficacy of ketotifen in desensitization process against oral allergen such as hazelnut, a similar study as described in Example […] may be carried out except with the use of hazelnut extract rather than ragweed extract.

[4] = system: adult patients who have a history of GERD; assay: GERD patients on omeprazole, ketotifen or both: GI symptoms and allergen-specific serum IgE (Example 4); format: in vivo, human
Method: The following study may be carried out to analyze the effectiveness of mast cell stabilizer in treating gastrointestinal disorders and/or as a prophylaxis against the development of allergy in patients at risk of developing sensitivity to such allergen, e.g., sensitivity to hazelnut, when exposed to it.
Sera of nine adult patients who have a history of GERD are collected. None of the patients report adverse reactions to inhalant or food allergens; however, IgE immunoblots are performed to screen their allergic state. Three patients from Group A are administered a proton pump inhibitor, e.g, omeprazole (Group A-1). Three patients from Group A are administered an oral dose of 0.5, 1, or 2 mg of ketotifen orally twice daily (Group A-2). […]
Serum IgE and Skin Tests in Patients: Sera are tested for allergen-specific IgE against hazelnut and inhalative allergens from tree pollen (eg, birch, hazel, and alder), grass pollen, weed pollen, molds, house dust mites, insect venoms, and animal dander. […] Additionally, total IgE is determined before and at the 3-mo time point. […]
Gastrointestinal Symptoms: Symptoms of gastrointestinal side effects such as GERD, nausea, abdominal pain, vomiting, gastritis and/or dyspepsia are recorded based on the severity and frequency of the symptoms. […]

[5] = system: patients who have a history of GERD, unresponsive to conventional proton pump inhibitors or antacids; assay: GERD patients unresponsive to proton pump inhibitors or antacids: ketotifen vs omeprazole (Example 5); format: in vivo, human; conditions: ketotifen 0.5 mg, 1 mg, 2 mg twice daily or omeprazole 1×20 mg/d
Method: To evaluate the effectiveness of ketotifen in patients who have a history of GERD, but are unresponsive to conventional proton pump inhibitors or antacids, two groups of patients are tested as similar to Example 4. One group is administered ketotifen at 0.5 mg, 1 mg, 2 mg, twice daily. The second group is treated with omeprazole, 1×20 mg/d. Sera IgE are evaluated before and after administration of ketotifen or omeprazole and gastrointestinal symptoms are recorded based on severity and frequency of symptoms.

[6] = system: OVA sensitized female BALB/c mice; assay: Sensitization to new allergen in a model of pre-existing food allergy (Example 6); format: in vivo
Method: A study is conducted to determine whether atopic animals are more easily sensitized to a newly introduced allergen (e.g., hazel nut). Four groups of female BALB/c mice (7-8 weeks old) are sensitized by intraperitoneal (IP) injections 2 weeks apart with ovalbumin (OVA; 50 μg) in 1.3% aluminum hydroxide (200 μl) followed 2 weeks later by 7 seven intragastric challenges (every other day) with saline or 5, 10, or 50 mg OVA, a selected dose of hazel nut, or combination of OVA and hazelnut. Endpoints include observance of diarrhea after intragastric challenge, Serum total and antigen specific IgE and IgG 1, gut to body weight ratio, intestinal permeability, and histological evaluation are performed. […] A second experiment assesses the ability of ketotifen to inhibit the induction of allergy to a newly introduced food allergen in animals with a pre-existing gastrointestinal allergy. […] A group of BALB/c mice similarly sensitized to OVA, but continuing to receive intragastric hazel nut in the absence of intragastric OVA fails to develop an observable gastrointestinal allergy phenotype.

[7] = system: patients who have a diagnosis of eosinophilic esophagitis and food allergy; assay: Eosinophilic esophagitis: ketotifen oral tablet vs topical gel (Example 7); format: in vivo, human
Method: To evaluate the effectiveness of ketotifen in patients who have a diagnosis of eosinophilic esophagitis and food allergy, two groups of patients will be tested. One group is orally administered ketotifen at 0.5 mg, 1 mg, or 2 mg, twice daily as a tablet.

PAF production = conditions: cited from earlier work
eosinophils = conditions: cited from earlier work
[8] = system: a patient with eosinophilic esophagitis; conditions: elimination of diet including eggs, treatment with ketotifen and montelukast; cited from earlier work
[9] = system: sensitization to previously tolerated ovalbumin; conditions: co-administered with ovalbumin; via elevation of the gastric pH; cited from earlier work

Compound | reflux symptom reporting during the study ([1]; GERD patients, Group A1 (ketotifen) vs Group A2 (placebo)) | tolerance (severity of reaction) to hazelnut upon oral ingestion ([1]; ketotifen 0.5, 1 or 2 mg orally twice daily, Group A-1 and B-1 compared to placebo groups A-2 and B-2, challenge at two, four and six weeks) | adverse events of gastrointestinal disorders [2] | allergy severity scores ([2]; scale of 0-3) | adverse events of gastrointestinal disorders [3] | allergy severity scores [3] | hazelnut-specific (and other allergen specific) IgE in blood sera ([4]; after onset of treatment, Groups A-1, A-2, A-3) | GERD symptoms ([4]; omeprazole 1×20 mg/d (A-1), ketotifen 0.5, 1 or 2 mg orally twice daily (A-2), both (A-3)) | GERD symptoms [5] | allergen specific IgE in blood sera [5] | development of new sensitivity to hazel nut ([6]; OVA sensitized mice receiving intragastric hazelnut with ketotifen or OVA plus hazelnut with ketotifen) | gastrointestinal allergy phenotype upon OVA intragastric challenge ([6]; female BALB/c mice sensitized to OVA) | patient-reported symptoms ([7]; ketotifen 0.5 mg, 1 mg or 2 mg twice daily as oral tablet) | overall effectiveness compared between formulations ([7]; oral tablet vs topical gel vs topical corticosteroids) | blood eosinophilia ([7]; oral tablet, blood analysis) | eosinophils, mast cells and degranulation in esophageal biopsies ([7]; oral tablet, compared to pre-treatment biopsies) | PAF production (PAF production) | eosinophil chemotaxis (eosinophils) | clinical outcome [8] | sensitization to previously tolerated ovalbumin [9]
CN1CCC(=C2c3ccccc3CC(=O)c3sccc32)CC1 [ketotifen] | significantly lower | significant increased tolerance | fewer adverse events of gastrointestinal disorders | significantly improved allergy severity scores | fewer adverse events of gastrointestinal disorders | significantly improved allergy severity scores | improved GERD symptoms and hazelnut-specific IgE | improved GERD symptoms | improved GERD symptoms | few new allergen specific IgE | fail to develop new sensitivity to hazel nut | significantly suppresses the gastrointestinal allergy phenotype | partial improvement of symptoms | inferior to those observed with the topical gel formulation | decreased eosinophilia | fewer numbers of eosinophils and mast cells and less degranulation | suppresses PAF production | inhibiting chemotaxis | clinical relief | 
sucralfate |  |  |  |  |  |  |  |  |  |  |  |  |  |  |  |  |  |  |  | caused sensitization to previously tolerated ovalbumin
